Assay results reported in article PMC8355244, “A fragment-based approach identifies an allosteric pocket that impacts malate dehydrogenase activity” (Communications Biology, 2021).
“And” between values parts separate entries of the source, which are not always exact repeats. Identical values can stand only once.

How the values were obtained:
[1] = Precipitation / turbidity of compound in assay buffer (600 nm); type: physicochemical; conditions: aqueous assay buffer
Method: 1.3 µL of derivatives of 4-phenylthiazol-2-amine in 100% DMSO were mixed with 237.7 µL of a mastermix of WT PfMDH previously incubated with NAD+. The final compound concentration used in this screening was 500 µM in the presence of 0.5% (v/v) DMSO. The microplate was sealed with silver foil for 1-h incubation at 25–35 °C. Finally, reactions in both the samples and control wells were started upon the addition of 13.0 µL of 5 mM malate). At the end of the experiments, the reaction of the plate was spectrophotometrically assayed at 600 nm in order to identify turbidity due to the low solubility of the compound. All measurements were performed in duplicate.

[2] = target: T1, PfMDH (Plasmodium falciparum, UniProt Q6VVP7); assay: Thermal shift assay (TSA); type: binding; conditions: for TSA melting curve raw signal: triplicate columns; for TSA melting curve raw fluorescence signal: three replicate columns
T1 construct: The full-length WT PfMDH gene was cloned into pETM-13; made in house; host or cells: E. coli Rosetta 2 (DE3) pLysS
Procedure, shortened: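 10 μM PfMDH with 1 mM compound in 100 mM Na–phosphate pH 7.4, 400 mM NaCl, 10× Sypro Orange; 1% DMSO controls. Melting inflection points taken as Tm; shifts >1 °C read as stabilization, negative shifts as destabilization.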

[3] = target: T1, PfMDH; assay: Kinetics experiment with varying L-malate, substrate inhibition model; type: biochemical; design: key to Ki (best-fit value, substrate inhibition model): Ki in mM; key to Vmax (best-fit value): Vmax in U/mg; 4PA kinetics raw data (rate): unit not given here; conditions: for Ki (best-fit value, substrate inhibition model) / Vmax (best-fit value): pH 10.2, Supplementary Table 6; for 4PA kinetics raw data (rate): replicates

T1 sequence (Q6VVP7 entry or part of it): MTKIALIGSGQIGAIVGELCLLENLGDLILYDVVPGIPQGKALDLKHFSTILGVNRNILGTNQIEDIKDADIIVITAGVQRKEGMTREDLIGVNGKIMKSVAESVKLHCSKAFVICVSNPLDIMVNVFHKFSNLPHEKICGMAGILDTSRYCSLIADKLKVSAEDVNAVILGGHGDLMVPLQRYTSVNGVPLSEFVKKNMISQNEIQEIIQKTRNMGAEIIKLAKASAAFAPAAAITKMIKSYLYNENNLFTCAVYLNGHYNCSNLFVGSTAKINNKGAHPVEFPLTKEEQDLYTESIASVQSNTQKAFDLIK

Nc1nc(-c2ccccc2)cs1 [4PA, 4-phenylthiazol-2-amine]
solubility (in words) [1]: slightly more soluble than 4DT
ΔTm at 1000 µM ([2]; 1 mM compound vs DMSO control): -3 °C
Tm ([2]; 1 mM compound, 10 μM PfMDH, DMSO control Tm 58): 55.0 ± 0.2 °C
TSA melting curve raw signal ([2]; Temperature 25): 3101.562 and 3333.877 and 3419.875
TSA melting curve raw signal ([2]; Temperature 28.5): 2982.864 and 3197.483 and 3331.476
TSA melting curve raw signal ([2]; Temperature 29): 2965.133 and 3176.088 and 3316.215
TSA melting curve raw signal ([2]; Temperature 29.5): 2946.457 and 3153.433 and 3298.876
TSA melting curve raw signal ([2]; Temperature 30): 2926.726 and 3129.047 and 3278.959
TSA melting curve raw signal ([2]; Temperature 30.5): 2906.089 and 3103.354 and 3257.233
TSA melting curve raw signal ([2]; Temperature 31): 2885.408 and 3077.356 and 3234.634
TSA melting curve raw signal ([2]; Temperature 31.5): 2865.452 and 3051.863 and 3212.437
TSA melting curve raw signal ([2]; Temperature 32): 2847.461 and 3027.963 and 3192.183
TSA melting curve raw signal ([2]; Temperature 32.5): 2831.845 and 3007.388 and 3175.246
TSA melting curve raw signal ([2]; Temperature 33): 2819.491 and 2990.613 and 3162.466
TSA melting curve raw signal ([2]; Temperature 33.5): 2810.837 and 2978.017 and 3154.456
TSA melting curve raw signal ([2]; Temperature 34): 2806.172 and 2970.163 and 3151.8
TSA melting curve raw signal ([2]; Temperature 34.5): 2805.279 and 2966.904 and 3154.834
TSA melting curve raw signal ([2]; Temperature 35): 2808.767 and 2967.899 and 3163.624
TSA melting curve raw signal ([2]; Temperature 35.5): 2816.443 and 2973.639 and 3178.538
TSA melting curve raw signal ([2]; Temperature 36): 2828.317 and 2984.069 and 3199.383
TSA melting curve raw signal ([2]; Temperature 36.5): 2844.427 and 2998.946 and 3225.589
TSA melting curve raw signal ([2]; Temperature 37): 2864.693 and 3018.271 and 3256.517
TSA melting curve raw signal ([2]; Temperature 37.5): 2888.742 and 3042.246 and 3291.976
TSA melting curve raw signal ([2]; Temperature 38): 2916.555 and 3070.379 and 3330.731
TSA melting curve raw signal ([2]; Temperature 38.5): 2948.507 and 3102.617 and 3372.906
TSA melting curve raw signal ([2]; Temperature 39): 2984.548 and 3139.232 and 3418.523
TSA melting curve raw signal ([2]; Temperature 39.5): 3025.238 and 3180.62 and 3468.123
TSA melting curve raw signal ([2]; Temperature 40): 3070.846 and 3226.341 and 3521.558
TSA melting curve raw signal ([2]; Temperature 40.5): 3121.424 and 3276.836 and 3579.878
TSA melting curve raw signal ([2]; Temperature 41): 3176.735 and 3332.701 and 3643.235
TSA melting curve raw signal ([2]; Temperature 41.5): 3236.92 and 3394.066 and 3712.066
TSA melting curve raw signal ([2]; Temperature 42): 3301.878 and 3461.348 and 3786.574
TSA melting curve raw signal ([2]; Temperature 42.5): 3371.782 and 3535.427 and 3867.61
TSA melting curve raw signal ([2]; Temperature 43): 3446.967 and 3616.442 and 3955.318
TSA melting curve raw signal ([2]; Temperature 43.5): 3527.686 and 3704.688 and 4050.074
TSA melting curve raw signal ([2]; Temperature 44): 3614.17 and 3800.745 and 4152.165
TSA melting curve raw signal ([2]; Temperature 44.5): 3706.596
TSA melting curve raw fluorescence signal ([2]; Temperature 73.5): 6991.444 and 7655.524 and 7881.758
TSA melting curve raw fluorescence signal ([2]; Temperature 74): 6939.612 and 7600.258 and 7826.265
TSA melting curve raw fluorescence signal ([2]; Temperature 74.5): 6888.076 and 7546.666 and 7771.787
TSA melting curve raw fluorescence signal ([2]; Temperature 75): 6836.407 and 7493.684 and 7717.224
TSA melting curve raw fluorescence signal ([2]; Temperature 75.5): 6784.183 and 7441.52 and 7662.752
TSA melting curve raw fluorescence signal ([2]; Temperature 76): 6731.402 and 7389.749 and 7608.451
TSA melting curve raw fluorescence signal ([2]; Temperature 76.5): 6679.444 and 7337.884 and 7553.49
TSA melting curve raw fluorescence signal ([2]; Temperature 77): 6628.226 and 7285.068 and 7497.822
TSA melting curve raw fluorescence signal ([2]; Temperature 77.5): 6578.245 and 7231.451 and 7441.978
TSA melting curve raw fluorescence signal ([2]; Temperature 78): 6529.803 and 7176.607 and 7385.969
TSA melting curve raw fluorescence signal ([2]; Temperature 78.5): 6482.748 and 7121.157 and 7329.423
TSA melting curve raw fluorescence signal ([2]; Temperature 79): 6436.76 and 7065.937 and 7274.048
TSA melting curve raw fluorescence signal ([2]; Temperature 79.5): 6391.899 and 7012.239 and 7219.892
TSA melting curve raw fluorescence signal ([2]; Temperature 80): 6347.542 and 6960.087 and 7166.546
TSA melting curve raw fluorescence signal ([2]; Temperature 80.5): 6302.907 and 6909.426 and 7113.859
TSA melting curve raw fluorescence signal ([2]; Temperature 81): 6257.989 and 6859.788 and 7062.389
TSA melting curve raw fluorescence signal ([2]; Temperature 81.5): 6211.993 and 6810.814 and 7010.574
TSA melting curve raw fluorescence signal ([2]; Temperature 82): 6164.6 and 6762.251 and 6958.299
TSA melting curve raw fluorescence signal ([2]; Temperature 82.5): 6116.092 and 6712.951 and 6905.437
TSA melting curve raw fluorescence signal ([2]; Temperature 83): 6067.721 and 6663.14 and 6852.004
TSA melting curve raw fluorescence signal ([2]; Temperature 83.5): 6019.674 and 6612.874 and 6798.049
TSA melting curve raw fluorescence signal ([2]; Temperature 84): 5972.405 and 6562.27 and 6744.245
TSA melting curve raw fluorescence signal ([2]; Temperature 84.5): 5926.625 and 6510.347 and 6690.517
TSA melting curve raw fluorescence signal ([2]; Temperature 85): 5882.391 and 6459.307 and 6637.567
TSA melting curve raw fluorescence signal ([2]; Temperature 85.5): 5838.459 and 6409.022 and 6584.837
TSA melting curve raw fluorescence signal ([2]; Temperature 86): 5794.143 and 6359.5 and 6531.78
TSA melting curve raw fluorescence signal ([2]; Temperature 86.5): 5749.377 and 6310.687 and 6478.281
TSA melting curve raw fluorescence signal ([2]; Temperature 87): 5703.739 and 6263.164 and 6424.447
TSA melting curve raw fluorescence signal ([2]; Temperature 87.5): 5656.691 and 6215.001 and 6369.065
TSA melting curve raw fluorescence signal ([2]; Temperature 88): 5609.372 and 6165.882 and 6313.087
TSA melting curve raw fluorescence signal ([2]; Temperature 88.5): 5562.587 and 6115.522 and 6256.819
TSA melting curve raw fluorescence signal ([2]; Temperature 89): 5515.924 and 6063.705 and 6199.979
TSA melting curve raw fluorescence signal ([2]; Temperature 89.5): 5468.97 and 6010.228 and 6142.345
TSA melting curve raw fluorescence signal ([2]; Temperature 90): 5422.458
Ki (best-fit value, substrate inhibition model) ([3]; 63 μM): 63.00 ± 31.8
Vmax (best-fit value) ([3]; 63 μM): 645.7 ± 29.0
Ki (best-fit value, substrate inhibition model) ([3]; 125 μM): 72.93 ± 41.9
Vmax (best-fit value) ([3]; 125 μM): 630.2 ± 28.5
4PA kinetics raw data (rate) ([3]; PfMDH + 63 uM, malate 0.078125 mM): 0.0098 and 0.01006 and 0.00834
4PA kinetics raw data (rate) ([3]; PfMDH + 63 uM, malate 0.15625 mM): 0.01266 and 0.01336 and 0.01325
4PA kinetics raw data (rate) ([3]; PfMDH + 63 uM, malate 0.3125 mM): 0.01621 and 0.01654 and 0.01602
4PA kinetics raw data (rate) ([3]; PfMDH + 63 uM, malate 0.625 mM): 0.02019 and 0.02009 and 0.02113
4PA kinetics raw data (rate) ([3]; PfMDH + 63 uM, malate 1.25 mM): 0.02141 and 0.02369 and 0.02088
4PA kinetics raw data (rate) ([3]; PfMDH + 63 uM, malate 2.5 mM): 0.02622 and 0.02453 and 0.02721
4PA kinetics raw data (rate) ([3]; PfMDH + 63 uM, malate 10 mM): 0.02549 and 0.02349 and 0.01973
4PA kinetics raw data (rate) ([3]; PfMDH + 125 uM, malate 0.078125 mM): 0.00804 and 0.006868 and 0.007099
4PA kinetics raw data (rate) ([3]; PfMDH + 125 uM, malate 0.15625 mM): 0.01089 and 0.01117 and 0.0101
4PA kinetics raw data (rate) ([3]; PfMDH + 125 uM, malate 0.3125 mM): 0.01419 and 0.01394 and 0.01404
4PA kinetics raw data (rate) ([3]; PfMDH + 125 uM, malate 0.625 mM): 0.01376 and 0.01789 and 0.01385
4PA kinetics raw data (rate) ([3]; PfMDH + 125 uM, malate 1.25 mM): 0.02005 and 0.02063 and 0.0175
4PA kinetics raw data (rate) ([3]; PfMDH + 125 uM, malate 2.5 mM): 0.02038 and 0.02019 and 0.02077
4PA kinetics raw data (rate) ([3]; PfMDH + 125 uM, malate 10 mM): 0.01925 and 0.01826 and 0.01944
Ki change vs control ([3]; in presence of 63 μM compound): 5 fold
Ki change vs control ([3]; in presence of 125 μM compound): 6 fold
Vmax ([3]; in the presence of 63 μM compound, control 967.8 ± 99.0): 645.7 ± 29.0 U mg^−1
Vmax ([3]; in the presence of 125 μM compound): 630.2 ± 28.5 U mg^−1
mechanism of the inhibition ([3]; vs malate): non-competitive
